Source: the supplement of paper PMC10307832

Legend:
Test in all cases: relative viability (nuclei count vs DMSO), 5 days (fraction); higher = more cells survive
NCI-H1975 = system: NCI-H1975
Outline: (§1)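 Lung cancer cell lines, seeded in 1536-well plates, were treated the following day by pin tool with a single drug or with five library-drug doses (not always all listed) in √10 steps on top of a fixed anchor-drug dose. Cells were fixed and nuclei stained in one step after 5 days, and nuclei were counted. Relative viability is the nuclei count for treated wells divided by that for vehicle wells, reported as medians of duplicate plates.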

HOP-62 = system: HOP-62
Outline: as §1

NCI-H1755 = system: NCI-H1755
Outline: as §1

NCI-H1915 = system: NCI-H1915
Outline: as §1

NCI-H2347 = system: NCI-H2347
Outline: as §1

NCI-H2228 = system: NCI-H2228
Outline: as §1

NCI-H522 = system: NCI-H522
Outline: as §1

LOU-NH91 = system: LOU-NH91
Outline: as §1

RERF-LC-KJ = system: RERF-LC-KJ
Outline: as §1

NCI-H460 = system: NCI-H460
Outline: as §1

LC-2-ad = system: LC-2-ad
Outline: as §1

A-427 = system: A-427
Outline: as §1

PC-3 [JPC-3] = system: PC-3 [JPC-3]
Outline: as §1

NCI-H2126 = system: NCI-H2126
Outline: as §1

LXF-289 = system: LXF-289
Outline: as §1

SW 1573 = system: SW 1573
Outline: as §1

HCC-15 = system: HCC-15
Outline: as §1

NCI-H2342 = system: NCI-H2342
Outline: as §1

NCI-H1734 = system: NCI-H1734
Outline: as §1

SK-LU-1 = system: SK-LU-1
Outline: as §1

NCI-H358 = system: NCI-H358
Outline: as §1

HCC-78 = system: HCC-78
Outline: as §1

NCI-H647 = system: NCI-H647
Outline: as §1

`Clc1ccc(Nc2nnc(Cc3ccncc3)c3ccccc23)cc1` [Vatalanib] + Cc1cc(Nc2cc(N3CCN(C)CC3)nc(Sc3ccc(NC(=O)C4CC4)cc3)n2)n[nH]1 [Tozasertib] (partner 0.1 µM) was tested, and the relative viability (NCI-H1975; first compound 0.04 µM) was 0.835, the relative viability (NCI-H1975; first compound 0.1265 µM) was 0.687 and the relative viability (NCI-H1975; first compound 0.4 µM) was 0.726. For the same molecule, the relative viability (NCI-H1975; first compound 1.265 µM) was 0.535, the relative viability (NCI-H1975; first compound 4 µM) was 0.424 and the relative viability (HOP-62; first compound 0.04 µM) was 0.401. The relative viability (HOP-62; first compound 0.1265 µM) was 0.335, the relative viability (HOP-62; first compound 0.4 µM) was 0.396 and the relative viability (HOP-62; first compound 1.265 µM) was 0.336. It also gave a relative viability (HOP-62; first compound 4 µM) of 0.405, a relative viability (NCI-H1755; first compound 0.04 µM) of 0.587 and a relative viability (NCI-H1755; first compound 0.1265 µM) of 0.612. For the same molecule, the relative viability (NCI-H1755; first compound 0.4 µM) was 0.701, the relative viability (NCI-H1755; first compound 1.265 µM) was 0.58 and the relative viability (NCI-H1755; first compound 4 µM) was 0.628. The relative viability (NCI-H1915; first compound 0.04 µM) was 0.457, the relative viability (NCI-H1915; first compound 0.1265 µM) was 0.413 and the relative viability (NCI-H1915; first compound 0.4 µM) was 0.468. The relative viability (NCI-H1915; first compound 1.265 µM) was 0.385, the relative viability (NCI-H1915; first compound 4 µM) was 0.442 and the relative viability (NCI-H2347; first compound 0.04 µM) was 0.462. It also gave a relative viability (NCI-H2347; first compound 0.1265 µM) of 0.579, a relative viability (NCI-H2347; first compound 0.4 µM) of 0.678 and a relative viability (NCI-H2347; first compound 1.265 µM) of 0.61. For the same molecule, the relative viability (NCI-H2347; first compound 4 µM) was 0.55, the relative viability (NCI-H2228; first compound 0.04 µM) was 0.235 and the relative viability (NCI-H2228; first compound 0.1265 µM) was 0.309. For the same molecule, the relative viability (NCI-H2228; first compound 0.4 µM) was 0.273, the relative viability (NCI-H2228; first compound 1.265 µM) was 0.227 and the relative viability (NCI-H2228; first compound 4 µM) was 0.239. The relative viability (NCI-H522; first compound 0.04 µM) was 0.565, the relative viability (NCI-H522; first compound 0.1265 µM) was 0.508 and the relative viability (NCI-H522; first compound 0.4 µM) was 0.636. The relative viability (NCI-H522; first compound 1.265 µM) was 0.57, the relative viability (NCI-H522; first compound 4 µM) was 0.477 and the relative viability (LOU-NH91; first compound 0.04 µM) was 0.768. For the same molecule, the relative viability (LOU-NH91; first compound 0.1265 µM) was 0.634, the relative viability (LOU-NH91; first compound 1.265 µM) was 0.652 and the relative viability (LOU-NH91; first compound 4 µM) was 0.621. For the same molecule, the relative viability (RERF-LC-KJ; first compound 0.04 µM) was 0.602, the relative viability (RERF-LC-KJ; first compound 0.1265 µM) was 0.555 and the relative viability (RERF-LC-KJ; first compound 0.4 µM) was 0.511. It also gave a relative viability (RERF-LC-KJ; first compound 1.265 µM) of 0.454, a relative viability (RERF-LC-KJ; first compound 4 µM) of 0.436 and a relative viability (NCI-H460; first compound 0.04 µM) of 0.656. The relative viability (NCI-H460; first compound 0.1265 µM) was 0.299, the relative viability (NCI-H460; first compound 1.265 µM) was 0.296 and the relative viability (NCI-H460; first compound 4 µM) was 0.397. For the same molecule, the relative viability (LC-2-ad; first compound 0.04 µM) was 0.53, the relative viability (LC-2-ad; first compound 0.1265 µM) was 0.385 and the relative viability (LC-2-ad; first compound 1.265 µM) was 0.469. The relative viability (LC-2-ad; first compound 4 µM) was 0.425, the relative viability (A-427; first compound 0.04 µM) was 0.224 and the relative viability (A-427; first compound 0.1265 µM) was 0.21. The relative viability (A-427; first compound 0.4 µM) was 0.232, the relative viability (A-427; first compound 1.265 µM) was 0.206 and the relative viability (A-427; first compound 4 µM) was 0.2. For the same molecule, the relative viability (PC-3 [JPC-3]; first compound 0.04 µM) was 0.876, the relative viability (PC-3 [JPC-3]; first compound 0.1265 µM) was 0.864 and the relative viability (PC-3 [JPC-3]; first compound 0.4 µM) was 0.873. For the same molecule, the relative viability (PC-3 [JPC-3]; first compound 1.265 µM) was 0.835, the relative viability (PC-3 [JPC-3]; first compound 4 µM) was 0.876 and the relative viability (NCI-H2126; first compound 0.04 µM) was 0.808. It also gave a relative viability (NCI-H2126; first compound 0.1265 µM) of 0.769, a relative viability (NCI-H2126; first compound 0.4 µM) of 0.829 and a relative viability (NCI-H2126; first compound 1.265 µM) of 0.805. It also gave a relative viability (NCI-H2126; first compound 4 µM) of 0.82, a relative viability (LXF-289; first compound 0.04 µM) of 0.201 and a relative viability (LXF-289; first compound 0.1265 µM) of 0.168. It also gave a relative viability (LXF-289; first compound 0.4 µM) of 0.229, a relative viability (LXF-289; first compound 1.265 µM) of 0.192 and a relative viability (LXF-289; first compound 4 µM) of 0.212. For the same molecule, the relative viability (SW 1573; first compound 0.04 µM) was 0.145, the relative viability (SW 1573; first compound 0.1265 µM) was 0.165 and the relative viability (SW 1573; first compound 0.4 µM) was 0.215. The relative viability (SW 1573; first compound 1.265 µM) was 0.257, the relative viability (SW 1573; first compound 4 µM) was 0.153 and the relative viability (HCC-15; first compound 0.04 µM) was 0.419. It also gave a relative viability (HCC-15; first compound 0.1265 µM) of 0.465, a relative viability (HCC-15; first compound 0.4 µM) of 0.478 and a relative viability (HCC-15; first compound 1.265 µM) of 0.446. It also gave a relative viability (HCC-15; first compound 4 µM) of 0.426, a relative viability (NCI-H2342; first compound 0.04 µM) of 0.618 and a relative viability (NCI-H2342; first compound 0.1265 µM) of 0.532. The relative viability (NCI-H2342; first compound 0.4 µM) was 0.492, the relative viability (NCI-H2342; first compound 1.265 µM) was 0.465 and the relative viability (NCI-H2342; first compound 4 µM) was 0.492. For the same molecule, the relative viability (NCI-H1734; first compound 0.04 µM) was 0.31, the relative viability (NCI-H1734; first compound 0.1265 µM) was 0.232 and the relative viability (NCI-H1734; first compound 0.4 µM) was 0.278. For the same molecule, the relative viability (NCI-H1734; first compound 1.265 µM) was 0.276, the relative viability (NCI-H1734; first compound 4 µM) was 0.249 and the relative viability (SK-LU-1; first compound 0.04 µM) was 0.374. The relative viability (SK-LU-1; first compound 0.1265 µM) was 0.33, the relative viability (SK-LU-1; first compound 0.4 µM) was 0.404 and the relative viability (SK-LU-1; first compound 1.265 µM) was 0.349. It also gave a relative viability (SK-LU-1; first compound 4 µM) of 0.322, a relative viability (NCI-H358; first compound 0.04 µM) of 0.0969 and a relative viability (NCI-H358; first compound 0.1265 µM) of 0.0902. For the same molecule, the relative viability (NCI-H358; first compound 0.4 µM) was 0.08, the relative viability (NCI-H358; first compound 1.265 µM) was 0.108 and the relative viability (NCI-H358; first compound 4 µM) was 0.0997. The relative viability (HCC-78; first compound 0.04 µM) was 0.447, the relative viability (HCC-78; first compound 0.1265 µM) was 0.494 and the relative viability (HCC-78; first compound 0.4 µM) was 0.559. For the same molecule, the relative viability (HCC-78; first compound 1.265 µM) was 0.436, the relative viability (HCC-78; first compound 4 µM) was 0.493 and the relative viability (NCI-H647; first compound 0.04 µM) was 0.3. The relative viability (NCI-H647; first compound 0.1265 µM) was 0.262, the relative viability (NCI-H647; first compound 0.4 µM) was 0.352 and the relative viability (NCI-H647; first compound 1.265 µM) was 0.26. For the same molecule, the relative viability (NCI-H647; first compound 4 µM) was 0.259.
